Source: patent US8772480B2, “Inhibitors of PI3 kinase and/or mTOR” (priority 2009, dated 2014)

target: ProfilerPro Kinase Selectivity Assay Kit kinases (Homo sapiens, UniProt P23443); type: biochemical; conditions: p70S6K; 1 μM compound concentration
Experimental: (§1) Compounds were profiled using a LabChip® EZ Reader II platform and a ProfilerPro Kinase Selectivity Assay Kit (Caliper Lifesciences Inc., Hopkinton, Mass.). Compounds were tested at a concentration of 1 M in duplicate, with mean data reported as percent of control (POC).

For `Cc1nc(N)cc(-c2cccnc2Nc2cccc3[nH]ncc23)n1` [Example 27, N-(3-(6-Amino-2-Methylpyrimidin-4-yl)Pyridin-2-yl)-1H-Indazol-4-Amine], which “POC (Percent of control) p70S6K” value is on record?
Its value is 91 POC.

target: ProfilerPro Kinase Selectivity Assay Kit kinases (Homo sapiens, UniProt O14757); type: biochemical; conditions: CHK1; 1 μM compound concentration
Experimental: as §1

With `Cc1nc(N)cc(-c2cccnc2Nc2cccc3[nH]ncc23)n1` [Example 27, N-(3-(6-Amino-2-Methylpyrimidin-4-yl)Pyridin-2-yl)-1H-Indazol-4-Amine] as the compound, how does the “POC (Percent of control) CHK1” value read?
The value was 103 POC.

target: ProfilerPro Kinase Selectivity Assay Kit kinases (Homo sapiens, UniProt P06239); type: biochemical; conditions: LCK; 1 μM compound concentration
Experimental: as §1

For `Cc1nc(N)cc(-c2cccnc2Nc2cccc3[nH]ncc23)n1` [Example 27, N-(3-(6-Amino-2-Methylpyrimidin-4-yl)Pyridin-2-yl)-1H-Indazol-4-Amine], which “POC (Percent of control) LCK” value is on record?
Its value is 101 POC.

target: ProfilerPro Kinase Selectivity Assay Kit kinases (Homo sapiens, UniProt P28482); type: biochemical; conditions: ERK2; 1 μM compound concentration
Sequence (P28482 2-360 limits assumed): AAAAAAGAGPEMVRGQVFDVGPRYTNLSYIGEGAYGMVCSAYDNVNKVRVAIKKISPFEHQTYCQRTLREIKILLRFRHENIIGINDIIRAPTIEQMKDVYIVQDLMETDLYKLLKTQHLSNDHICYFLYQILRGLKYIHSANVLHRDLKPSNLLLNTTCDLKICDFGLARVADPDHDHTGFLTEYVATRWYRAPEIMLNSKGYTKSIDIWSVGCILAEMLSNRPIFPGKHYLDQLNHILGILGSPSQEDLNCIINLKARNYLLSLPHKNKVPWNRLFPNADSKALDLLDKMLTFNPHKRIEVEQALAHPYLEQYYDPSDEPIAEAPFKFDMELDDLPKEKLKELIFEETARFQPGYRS
Experimental: as §1

Which “POC (Percent of control) ERK2” value does the source give for `Cc1nc(N)cc(-c2cccnc2Nc2cccc3[nH]ncc23)n1` [Example 27, N-(3-(6-Amino-2-Methylpyrimidin-4-yl)Pyridin-2-yl)-1H-Indazol-4-Amine] here?
Its value is 97 POC.

target: ProfilerPro Kinase Selectivity Assay Kit kinases (Homo sapiens, UniProt Q13627); type: biochemical; conditions: DYRK1a; 1 μM compound concentration
Experimental: as §1

Which “POC (Percent of control) DYRK1a” value does the source give for `Cc1nc(N)cc(-c2cccnc2Nc2cccc3[nH]ncc23)n1` [Example 27, N-(3-(6-Amino-2-Methylpyrimidin-4-yl)Pyridin-2-yl)-1H-Indazol-4-Amine] here?
The value was 92 POC.

test system: ProfilerPro Kinase Selectivity Assay Kit kinases; type: biochemical; conditions: AMPK; 1 μM compound concentration
Experimental: as §1

With `Cc1nc(N)cc(-c2cccnc2Nc2cccc3[nH]ncc23)n1` [Example 27, N-(3-(6-Amino-2-Methylpyrimidin-4-yl)Pyridin-2-yl)-1H-Indazol-4-Amine] as the compound, how does the “POC (Percent of control) AMPK” value read?
Its value is 83 POC.

same assay, conditions: CAMK2; 1 μM compound concentration

`Cc1nc(N)cc(-c2cccnc2Nc2cccc3[nH]ncc23)n1` [Example 27, N-(3-(6-Amino-2-Methylpyrimidin-4-yl)Pyridin-2-yl)-1H-Indazol-4-Amine] was tested. Which “POC (Percent of control) CAMK2” value did it give?
Its value is 116 POC.

same assay, conditions: PKC beta2; 1 μM compound concentration

With `Cc1nc(N)cc(-c2cccnc2Nc2cccc3[nH]ncc23)n1` [Example 27, N-(3-(6-Amino-2-Methylpyrimidin-4-yl)Pyridin-2-yl)-1H-Indazol-4-Amine] as the compound, how does the “POC (Percent of control) PKC beta2” value read?
The value was 166 POC.

same assay, conditions: TAK1; 1 μM compound concentration

`Cc1nc(N)cc(-c2cccnc2Nc2cccc3[nH]ncc23)n1` [Example 27, N-(3-(6-Amino-2-Methylpyrimidin-4-yl)Pyridin-2-yl)-1H-Indazol-4-Amine] was tested. Which “POC (Percent of control) TAK1” value did it give?
The value was 102 POC.

target: ProfilerPro Kinase Selectivity Assay Kit kinases (Homo sapiens, UniProt P31749); type: biochemical; conditions: AKT1; 1 μM compound concentration
Experimental: as §1

With `Cc1nc(N)cc(-c2cccnc2Nc2cccc3[nH]ncc23)n1` [Example 27, N-(3-(6-Amino-2-Methylpyrimidin-4-yl)Pyridin-2-yl)-1H-Indazol-4-Amine] as the compound, how does the “POC (Percent of control) AKT1” value read?
The value was 98 POC.

target: ProfilerPro Kinase Selectivity Assay Kit kinases (Homo sapiens, UniProt P36888); type: biochemical; conditions: FLT3; 1 μM compound concentration
Sequence (P36888 27-993 limits assumed): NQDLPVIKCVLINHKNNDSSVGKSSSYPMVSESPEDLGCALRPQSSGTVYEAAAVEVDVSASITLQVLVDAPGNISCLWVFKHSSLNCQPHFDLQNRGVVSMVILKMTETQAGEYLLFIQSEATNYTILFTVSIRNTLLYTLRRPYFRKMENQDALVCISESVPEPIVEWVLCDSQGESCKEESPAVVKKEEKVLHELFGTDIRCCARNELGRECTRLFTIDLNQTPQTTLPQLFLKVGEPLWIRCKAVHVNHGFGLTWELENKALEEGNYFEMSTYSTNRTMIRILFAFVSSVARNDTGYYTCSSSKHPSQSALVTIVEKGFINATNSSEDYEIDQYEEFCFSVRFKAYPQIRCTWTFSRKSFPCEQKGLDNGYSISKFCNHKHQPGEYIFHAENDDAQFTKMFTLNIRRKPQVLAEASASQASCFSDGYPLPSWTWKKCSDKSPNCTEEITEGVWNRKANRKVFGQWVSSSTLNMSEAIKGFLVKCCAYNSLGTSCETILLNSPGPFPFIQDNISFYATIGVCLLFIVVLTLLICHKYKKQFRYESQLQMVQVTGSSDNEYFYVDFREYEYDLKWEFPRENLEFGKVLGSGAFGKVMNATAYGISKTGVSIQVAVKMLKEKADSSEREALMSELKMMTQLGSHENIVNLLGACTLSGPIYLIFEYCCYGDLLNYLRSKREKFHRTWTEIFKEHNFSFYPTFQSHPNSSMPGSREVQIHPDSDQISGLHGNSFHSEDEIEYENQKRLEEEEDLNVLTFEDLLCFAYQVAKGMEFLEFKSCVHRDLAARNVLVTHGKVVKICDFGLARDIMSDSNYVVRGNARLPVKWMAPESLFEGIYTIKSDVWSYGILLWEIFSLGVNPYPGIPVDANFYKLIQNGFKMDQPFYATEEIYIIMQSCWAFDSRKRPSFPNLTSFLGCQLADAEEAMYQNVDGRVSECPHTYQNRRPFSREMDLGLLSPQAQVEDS
Experimental: as §1

`Cc1nc(N)cc(-c2cccnc2Nc2cccc3[nH]ncc23)n1` [Example 27, N-(3-(6-Amino-2-Methylpyrimidin-4-yl)Pyridin-2-yl)-1H-Indazol-4-Amine] was tested. Which “POC (Percent of control) FLT3” value did it give?
Its value is 73 POC.

target: ProfilerPro Kinase Selectivity Assay Kit kinases (Homo sapiens, UniProt O96017); type: biochemical; conditions: CHK2; 1 μM compound concentration
Experimental: as §1

For `Cc1nc(N)cc(-c2cccnc2Nc2cccc3[nH]ncc23)n1` [Example 27, N-(3-(6-Amino-2-Methylpyrimidin-4-yl)Pyridin-2-yl)-1H-Indazol-4-Amine], which “POC (Percent of control) CHK2” value is on record?
The value was 97 POC.

target: ProfilerPro Kinase Selectivity Assay Kit kinases (Homo sapiens, UniProt P08581); type: biochemical; conditions: cMET; 1 μM compound concentration
Sequence (P08581 25-1390 limits assumed): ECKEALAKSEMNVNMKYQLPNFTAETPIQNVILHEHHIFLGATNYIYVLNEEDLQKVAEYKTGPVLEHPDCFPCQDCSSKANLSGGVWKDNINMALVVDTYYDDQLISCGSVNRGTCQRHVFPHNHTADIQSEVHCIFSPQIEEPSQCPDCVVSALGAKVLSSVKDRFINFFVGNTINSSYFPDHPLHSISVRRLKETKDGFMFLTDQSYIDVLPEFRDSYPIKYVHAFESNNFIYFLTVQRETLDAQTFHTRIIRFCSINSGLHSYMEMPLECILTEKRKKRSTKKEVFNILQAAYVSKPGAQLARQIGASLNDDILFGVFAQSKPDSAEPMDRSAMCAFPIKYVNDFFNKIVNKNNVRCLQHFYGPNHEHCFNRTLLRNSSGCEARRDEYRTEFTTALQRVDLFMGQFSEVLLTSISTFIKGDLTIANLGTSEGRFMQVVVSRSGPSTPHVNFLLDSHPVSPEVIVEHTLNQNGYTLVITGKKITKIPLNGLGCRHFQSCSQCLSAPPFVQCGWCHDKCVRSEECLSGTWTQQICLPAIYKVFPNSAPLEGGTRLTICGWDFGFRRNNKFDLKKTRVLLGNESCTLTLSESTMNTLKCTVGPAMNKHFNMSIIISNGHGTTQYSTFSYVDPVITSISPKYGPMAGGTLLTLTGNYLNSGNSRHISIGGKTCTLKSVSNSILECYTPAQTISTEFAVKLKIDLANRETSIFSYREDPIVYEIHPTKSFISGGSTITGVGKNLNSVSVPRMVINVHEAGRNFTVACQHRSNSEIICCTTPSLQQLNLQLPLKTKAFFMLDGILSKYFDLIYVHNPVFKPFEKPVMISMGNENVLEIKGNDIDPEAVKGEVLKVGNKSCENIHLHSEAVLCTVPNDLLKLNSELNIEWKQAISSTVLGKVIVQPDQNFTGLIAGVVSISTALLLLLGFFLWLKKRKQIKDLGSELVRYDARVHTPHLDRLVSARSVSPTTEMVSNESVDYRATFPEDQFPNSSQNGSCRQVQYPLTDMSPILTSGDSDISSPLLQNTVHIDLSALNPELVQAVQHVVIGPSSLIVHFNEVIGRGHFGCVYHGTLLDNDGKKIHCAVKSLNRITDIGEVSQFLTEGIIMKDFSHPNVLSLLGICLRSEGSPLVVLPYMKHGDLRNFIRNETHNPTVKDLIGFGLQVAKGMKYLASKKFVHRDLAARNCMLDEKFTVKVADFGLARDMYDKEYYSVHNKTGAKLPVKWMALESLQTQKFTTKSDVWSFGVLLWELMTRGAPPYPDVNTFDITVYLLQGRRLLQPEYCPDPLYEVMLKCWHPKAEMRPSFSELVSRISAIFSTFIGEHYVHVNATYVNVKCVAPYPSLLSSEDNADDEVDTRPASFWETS
Experimental: as §1

`Cc1nc(N)cc(-c2cccnc2Nc2cccc3[nH]ncc23)n1` [Example 27, N-(3-(6-Amino-2-Methylpyrimidin-4-yl)Pyridin-2-yl)-1H-Indazol-4-Amine] was tested. Which “POC (Percent of control) cMET” value did it give?
Its value is 95 POC.

target: ProfilerPro Kinase Selectivity Assay Kit kinases (Homo sapiens, UniProt P00519); type: biochemical; conditions: ABL; 1 μM compound concentration
Experimental: as §1

`Cc1nc(N)cc(-c2cccnc2Nc2cccc3[nH]ncc23)n1` [Example 27, N-(3-(6-Amino-2-Methylpyrimidin-4-yl)Pyridin-2-yl)-1H-Indazol-4-Amine] was tested. Which “POC (Percent of control) ABL” value did it give?
The value was 104 POC.

target: ProfilerPro Kinase Selectivity Assay Kit kinases (Homo sapiens, UniProt P04049); type: biochemical; conditions: cRAF; 1 μM compound concentration
Experimental: as §1

`Cc1nc(N)cc(-c2cccnc2Nc2cccc3[nH]ncc23)n1` [Example 27, N-(3-(6-Amino-2-Methylpyrimidin-4-yl)Pyridin-2-yl)-1H-Indazol-4-Amine] was tested. Which “POC (Percent of control) cRAF” value did it give?
The value was 95 POC.

target: ProfilerPro Kinase Selectivity Assay Kit kinases (Homo sapiens, UniProt Q06187); type: biochemical; conditions: BTK; 1 μM compound concentration
Sequence (Q06187 2-659 limits assumed): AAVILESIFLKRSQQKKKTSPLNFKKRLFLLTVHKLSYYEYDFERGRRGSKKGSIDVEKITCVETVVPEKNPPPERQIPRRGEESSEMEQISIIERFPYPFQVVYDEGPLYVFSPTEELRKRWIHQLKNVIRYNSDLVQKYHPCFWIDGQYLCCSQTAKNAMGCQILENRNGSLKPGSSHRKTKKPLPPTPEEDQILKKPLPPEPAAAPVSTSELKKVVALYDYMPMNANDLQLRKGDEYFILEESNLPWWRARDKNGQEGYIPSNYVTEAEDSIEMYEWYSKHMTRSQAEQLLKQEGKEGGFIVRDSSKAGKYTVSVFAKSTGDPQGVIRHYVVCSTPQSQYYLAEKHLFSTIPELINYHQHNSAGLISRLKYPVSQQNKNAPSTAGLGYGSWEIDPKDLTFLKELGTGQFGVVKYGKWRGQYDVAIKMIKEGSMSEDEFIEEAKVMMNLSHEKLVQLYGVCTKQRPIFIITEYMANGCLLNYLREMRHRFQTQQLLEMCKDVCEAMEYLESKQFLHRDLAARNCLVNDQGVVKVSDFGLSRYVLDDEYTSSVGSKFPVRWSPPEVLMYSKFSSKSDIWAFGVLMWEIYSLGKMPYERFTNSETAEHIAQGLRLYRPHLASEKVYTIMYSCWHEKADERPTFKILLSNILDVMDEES
Experimental: as §1

With `Cc1nc(N)cc(-c2cccnc2Nc2cccc3[nH]ncc23)n1` [Example 27, N-(3-(6-Amino-2-Methylpyrimidin-4-yl)Pyridin-2-yl)-1H-Indazol-4-Amine] as the compound, how does the “POC (Percent of control) BTK” value read?
The value was 99 POC.

target: ProfilerPro Kinase Selectivity Assay Kit kinases (Homo sapiens, UniProt Q16566); type: biochemical; conditions: CAMK4; 1 μM compound concentration
Experimental: as §1

Which “POC (Percent of control) CAMK4” value does the source give for `Cc1nc(N)cc(-c2cccnc2Nc2cccc3[nH]ncc23)n1` [Example 27, N-(3-(6-Amino-2-Methylpyrimidin-4-yl)Pyridin-2-yl)-1H-Indazol-4-Amine] here?
Its value is 56 POC.

target: ProfilerPro Kinase Selectivity Assay Kit kinases (Homo sapiens, UniProt Q9P1W9); type: biochemical; conditions: PIM2; 1 μM compound concentration
Experimental: as §1

Which “POC (Percent of control) PIM2” value does the source give for `Cc1nc(N)cc(-c2cccnc2Nc2cccc3[nH]ncc23)n1` [Example 27, N-(3-(6-Amino-2-Methylpyrimidin-4-yl)Pyridin-2-yl)-1H-Indazol-4-Amine] here?
The value was 106 POC.

target: ProfilerPro Kinase Selectivity Assay Kit kinases (Homo sapiens, UniProt Q13976); type: biochemical; conditions: PKGa2; 1 μM compound concentration
Sequence (Q13976 2-671 limits assumed): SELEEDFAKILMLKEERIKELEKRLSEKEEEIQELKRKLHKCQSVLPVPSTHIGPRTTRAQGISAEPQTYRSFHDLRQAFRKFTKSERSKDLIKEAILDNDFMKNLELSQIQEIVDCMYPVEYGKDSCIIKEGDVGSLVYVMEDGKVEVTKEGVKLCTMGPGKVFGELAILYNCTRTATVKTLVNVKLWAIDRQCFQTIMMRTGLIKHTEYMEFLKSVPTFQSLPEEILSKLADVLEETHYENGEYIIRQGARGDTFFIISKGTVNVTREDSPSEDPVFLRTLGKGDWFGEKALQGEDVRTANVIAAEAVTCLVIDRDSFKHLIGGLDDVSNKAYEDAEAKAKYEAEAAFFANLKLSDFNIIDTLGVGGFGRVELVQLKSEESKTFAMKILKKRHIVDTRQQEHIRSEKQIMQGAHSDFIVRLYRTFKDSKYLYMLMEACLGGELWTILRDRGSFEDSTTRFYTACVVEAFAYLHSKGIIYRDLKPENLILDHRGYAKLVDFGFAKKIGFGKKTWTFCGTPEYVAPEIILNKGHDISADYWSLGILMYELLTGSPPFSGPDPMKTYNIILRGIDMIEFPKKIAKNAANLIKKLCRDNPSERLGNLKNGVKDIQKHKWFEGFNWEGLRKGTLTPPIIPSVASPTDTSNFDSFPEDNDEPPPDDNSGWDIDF
Experimental: as §1

How did the “POC (Percent of control) PKGa2” value turn out when `Cc1nc(N)cc(-c2cccnc2Nc2cccc3[nH]ncc23)n1` [Example 27, N-(3-(6-Amino-2-Methylpyrimidin-4-yl)Pyridin-2-yl)-1H-Indazol-4-Amine] was run?
The value was 90 POC.

target: ProfilerPro Kinase Selectivity Assay Kit kinases (Homo sapiens, UniProt P11362); type: biochemical; conditions: FGFR1; 1 μM compound concentration
Experimental: as §1

Which “POC (Percent of control) FGFR1” value does the source give for `Cc1nc(N)cc(-c2cccnc2Nc2cccc3[nH]ncc23)n1` [Example 27, N-(3-(6-Amino-2-Methylpyrimidin-4-yl)Pyridin-2-yl)-1H-Indazol-4-Amine] here?
Its value is 94 POC.

target: ProfilerPro Kinase Selectivity Assay Kit kinases (Homo sapiens, UniProt P24941); type: biochemical; conditions: CDK2; 1 μM compound concentration
Experimental: as §1

For `Cc1nc(N)cc(-c2cccnc2Nc2cccc3[nH]ncc23)n1` [Example 27, N-(3-(6-Amino-2-Methylpyrimidin-4-yl)Pyridin-2-yl)-1H-Indazol-4-Amine], which “POC (Percent of control) CDK2” value is on record?
The value was 84 POC.

target: ProfilerPro Kinase Selectivity Assay Kit kinases (Homo sapiens, UniProt O00141); type: biochemical; conditions: SGK1; 1 μM compound concentration
Experimental: as §1

Which “POC (Percent of control) SGK1” value does the source give for `Cc1nc(N)cc(-c2cccnc2Nc2cccc3[nH]ncc23)n1` [Example 27, N-(3-(6-Amino-2-Methylpyrimidin-4-yl)Pyridin-2-yl)-1H-Indazol-4-Amine] here?
Its value is 85 POC.

target: ProfilerPro Kinase Selectivity Assay Kit kinases (Homo sapiens, UniProt Q8IW41); type: biochemical; conditions: PRAK; 1 μM compound concentration
Experimental: as §1

`Cc1nc(N)cc(-c2cccnc2Nc2cccc3[nH]ncc23)n1` [Example 27, N-(3-(6-Amino-2-Methylpyrimidin-4-yl)Pyridin-2-yl)-1H-Indazol-4-Amine] was tested. Which “POC (Percent of control) PRAK” value did it give?
Its value is 98 POC.

target: ProfilerPro Kinase Selectivity Assay Kit kinases (Homo sapiens, UniProt O75582); type: biochemical; conditions: MSK1; 1 μM compound concentration
Experimental: as §1

Which “POC (Percent of control) MSK1” value does the source give for `Cc1nc(N)cc(-c2cccnc2Nc2cccc3[nH]ncc23)n1` [Example 27, N-(3-(6-Amino-2-Methylpyrimidin-4-yl)Pyridin-2-yl)-1H-Indazol-4-Amine] here?
Its value is 94 POC.

target: ProfilerPro Kinase Selectivity Assay Kit kinases (Homo sapiens, UniProt P27361); type: biochemical; conditions: ERK1; 1 μM compound concentration
Sequence (P27361 2-379 limits assumed): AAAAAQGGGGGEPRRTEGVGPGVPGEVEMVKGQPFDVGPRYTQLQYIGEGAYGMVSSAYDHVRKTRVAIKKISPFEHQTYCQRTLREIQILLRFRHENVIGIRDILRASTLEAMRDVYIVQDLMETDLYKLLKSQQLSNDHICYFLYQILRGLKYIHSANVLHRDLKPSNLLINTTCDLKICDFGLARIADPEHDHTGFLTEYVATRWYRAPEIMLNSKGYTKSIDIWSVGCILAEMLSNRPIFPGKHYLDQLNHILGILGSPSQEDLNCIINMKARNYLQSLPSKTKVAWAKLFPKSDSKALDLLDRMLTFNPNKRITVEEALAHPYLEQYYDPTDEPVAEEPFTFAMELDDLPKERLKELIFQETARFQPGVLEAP
Experimental: as §1

With `Cc1nc(N)cc(-c2cccnc2Nc2cccc3[nH]ncc23)n1` [Example 27, N-(3-(6-Amino-2-Methylpyrimidin-4-yl)Pyridin-2-yl)-1H-Indazol-4-Amine] as the compound, how does the “POC (Percent of control) ERK1” value read?
Its value is 100 POC.

target: ProfilerPro Kinase Selectivity Assay Kit kinases (Homo sapiens, UniProt Q9P0L2); type: biochemical; conditions: MARK1; 1 μM compound concentration
Experimental: as §1

For `Cc1nc(N)cc(-c2cccnc2Nc2cccc3[nH]ncc23)n1` [Example 27, N-(3-(6-Amino-2-Methylpyrimidin-4-yl)Pyridin-2-yl)-1H-Indazol-4-Amine], which “POC (Percent of control) MARK1” value is on record?
Its value is 102 POC.

target: ProfilerPro Kinase Selectivity Assay Kit kinases (Homo sapiens, UniProt P35968); type: biochemical; conditions: KDR; 1 μM compound concentration
Experimental: as §1

With `Cc1nc(N)cc(-c2cccnc2Nc2cccc3[nH]ncc23)n1` [Example 27, N-(3-(6-Amino-2-Methylpyrimidin-4-yl)Pyridin-2-yl)-1H-Indazol-4-Amine] as the compound, how does the “POC (Percent of control) KDR” value read?
The value was 81 POC.

target: ProfilerPro Kinase Selectivity Assay Kit kinases (Homo sapiens, UniProt Q16539); type: biochemical; conditions: p38 alpha; 1 μM compound concentration
Experimental: as §1

Which “POC (Percent of control) p38 alpha” value does the source give for `Cc1nc(N)cc(-c2cccnc2Nc2cccc3[nH]ncc23)n1` [Example 27, N-(3-(6-Amino-2-Methylpyrimidin-4-yl)Pyridin-2-yl)-1H-Indazol-4-Amine] here?
The value was 104 POC.

target: ProfilerPro Kinase Selectivity Assay Kit kinases (Homo sapiens, UniProt Q05513); type: biochemical; conditions: PKC zeta; 1 μM compound concentration
Experimental: as §1

`Cc1nc(N)cc(-c2cccnc2Nc2cccc3[nH]ncc23)n1` [Example 27, N-(3-(6-Amino-2-Methylpyrimidin-4-yl)Pyridin-2-yl)-1H-Indazol-4-Amine] was tested. Which “POC (Percent of control) PKC zeta” value did it give?
Its value is 99 POC.

target: ProfilerPro Kinase Selectivity Assay Kit kinases (Homo sapiens, UniProt O75116); type: biochemical; conditions: ROCK2; 1 μM compound concentration
Experimental: as §1

Which “POC (Percent of control) ROCK2” value does the source give for `Cc1nc(N)cc(-c2cccnc2Nc2cccc3[nH]ncc23)n1` [Example 27, N-(3-(6-Amino-2-Methylpyrimidin-4-yl)Pyridin-2-yl)-1H-Indazol-4-Amine] here?
The value was 95 POC.

target: ProfilerPro Kinase Selectivity Assay Kit kinases (Homo sapiens, UniProt Q9BZL6); type: biochemical; conditions: PKD2; 1 μM compound concentration
Experimental: as §1

With `Cc1nc(N)cc(-c2cccnc2Nc2cccc3[nH]ncc23)n1` [Example 27, N-(3-(6-Amino-2-Methylpyrimidin-4-yl)Pyridin-2-yl)-1H-Indazol-4-Amine] as the compound, how does the “POC (Percent of control) PKD2” value read?
Its value is 102 POC.

target: ProfilerPro Kinase Selectivity Assay Kit kinases (Homo sapiens, UniProt P49841); type: biochemical; conditions: GSK3 beta; 1 μM compound concentration
Experimental: as §1

How did the “POC (Percent of control) GSK3 beta” value turn out when `Cc1nc(N)cc(-c2cccnc2Nc2cccc3[nH]ncc23)n1` [Example 27, N-(3-(6-Amino-2-Methylpyrimidin-4-yl)Pyridin-2-yl)-1H-Indazol-4-Amine] was run?
The value was 80 POC.

target: ProfilerPro Kinase Selectivity Assay Kit kinases (Homo sapiens, UniProt P49137); type: biochemical; conditions: MAPKAPK2; 1 μM compound concentration
Experimental: as §1

How did the “POC (Percent of control) MAPKAPK2” value turn out when `Cc1nc(N)cc(-c2cccnc2Nc2cccc3[nH]ncc23)n1` [Example 27, N-(3-(6-Amino-2-Methylpyrimidin-4-yl)Pyridin-2-yl)-1H-Indazol-4-Amine] was run?
The value was 101 POC.

target: ProfilerPro Kinase Selectivity Assay Kit kinases (Homo sapiens, UniProt P07948); type: biochemical; conditions: LYN; 1 μM compound concentration
Sequence (P07948 2-512 limits assumed): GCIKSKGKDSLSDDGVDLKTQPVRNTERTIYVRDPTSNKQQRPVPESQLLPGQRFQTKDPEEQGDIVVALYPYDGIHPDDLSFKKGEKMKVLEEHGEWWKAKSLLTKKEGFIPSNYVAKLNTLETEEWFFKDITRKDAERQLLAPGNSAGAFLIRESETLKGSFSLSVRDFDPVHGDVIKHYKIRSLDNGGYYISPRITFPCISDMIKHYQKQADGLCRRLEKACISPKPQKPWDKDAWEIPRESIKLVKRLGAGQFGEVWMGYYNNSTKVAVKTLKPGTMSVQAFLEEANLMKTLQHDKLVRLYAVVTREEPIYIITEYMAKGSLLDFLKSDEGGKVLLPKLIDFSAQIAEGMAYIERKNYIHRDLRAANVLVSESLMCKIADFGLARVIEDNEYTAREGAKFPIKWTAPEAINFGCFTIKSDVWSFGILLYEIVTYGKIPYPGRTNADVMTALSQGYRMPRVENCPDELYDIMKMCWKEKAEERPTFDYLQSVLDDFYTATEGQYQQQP
Experimental: as §1

For `Cc1nc(N)cc(-c2cccnc2Nc2cccc3[nH]ncc23)n1` [Example 27, N-(3-(6-Amino-2-Methylpyrimidin-4-yl)Pyridin-2-yl)-1H-Indazol-4-Amine], which “POC (Percent of control) LYN” value is on record?
The value was 91 POC.
